Test [1] deals with α1G T-type calcium channel (Homo sapiens, UniProt O43497). The test can be described thus: Assay for T-type calcium channel inhibition activity (FDSS6000 calcium imaging, KCl activation). The test is classed as cell-based. As to conditions: 75 s pre-treatment then KCl 75 mM, HEK293 cells expressing α1G T-type calcium channel and Kir2.1. As for the experimental part:
At 12-24 hours before the assay for T-type calcium channel activity, cells of HEK293 cell line (α1G cell line: KCTC 10519BP, GenBank, Korea Research Institute of Bioscience and Biotechnology) which stably express α1G T-type calcium channel and Kir2.1, were sub-cultured in a poly-L-lysine (0.05 mg/ml) treated 96-well plate with the density of 4×10^4 per a well using a 96-well cell dispenser (Titertek). On the day of assay, the 96-well plate to which the cells were attached were washed three times with a HEPES buffer solution (unit mM: 150 NaCl, 5 KCl, 1 MgCl2, 2 CaCl2, 10 HEPES, 10 glucose, pH 7.4) using a 96-well plate automatic washing device (Bio Tek), and then reacted with a HEPES buffer solution containing 5 μM fluo-3/AM and 0.001% (w/v) Pluronic F-127 at room temperature for 1 hour, to label with fluorescent dye, and then further washed twice with the HEPES buffer solution. Thereafter, at 10 minutes before the measurement using a FDSS6000 device, a washing with a HEPES buffer solution containing 10 mM CaCl2 was conducted once more, and the final volume was adjusted to 81 μl. Besides the above 96-well plate containing the cells, additional two 96-well drug plates were provided, in which the 96-well plates contained KCl (final concentration: 75 mM) for activating T-type calcium channel and a blocker drug, respectively.
Since most of cell-based HTS (High throughput screening) devices are equipped with a liquid application system for drug injection, but have no liquid sucking system, the blocker drug to be tested and KCl were respectively provided at the five-times higher concentration in 10 mM CaCl2 HEPES buffer solution at the amount of 27 μl, diluted five-times at the final cell plate volume of 135 μl, and then used in this test. In this Experimental Example, therefore, FDSS6000 (Hamamatsu Photonics) was used as an alternative to HTS device.
Specific FDSS6000 measurement conditions are as follows: After recording the reference value of 20 seconds, the change of intracellular calcium concentration which induced by pre-treatment of the drug (the prepared […]) for 75 seconds followed by administration of KCl was measured, in which the percentage (%) inhibition effect of the test drug was determined, through estimating the area of ratio value of 340/380 in the control without treatment of the test drug as 100%. As a reference drug, 10 μM of mibefradil was always used.
For accurate calcium-imagination, the light sources of 4 xenon lamps in FDSS6000 were radiated to make the cells exposed selectively to the excitation wavelength (340 nm and 380 nm) by computer-controlled filter wheel. Data was obtained at interval of each 1.23 second. The emitter fluorescence light inflow through a 515 nm long-pass filter was obtained as an average 340/380 ratio value for each well in the 96-wells by a cooled CCD camera and digital fluorescence analyzer in the device. All image data and analysis were obtained by using a FDSS6000-exclusive program provided by Hamamatsu Photonics, as described above.

Test [2] deals with T1, TREK-1 channel (Rattus norvegicus, UniProt Q920B6).
T1 construct: expressed in transfected cells; host or cells: COS7 (Korean Cell Line Bank), transient transfection with Effectene
T1 sequence (Q920B6 1-426): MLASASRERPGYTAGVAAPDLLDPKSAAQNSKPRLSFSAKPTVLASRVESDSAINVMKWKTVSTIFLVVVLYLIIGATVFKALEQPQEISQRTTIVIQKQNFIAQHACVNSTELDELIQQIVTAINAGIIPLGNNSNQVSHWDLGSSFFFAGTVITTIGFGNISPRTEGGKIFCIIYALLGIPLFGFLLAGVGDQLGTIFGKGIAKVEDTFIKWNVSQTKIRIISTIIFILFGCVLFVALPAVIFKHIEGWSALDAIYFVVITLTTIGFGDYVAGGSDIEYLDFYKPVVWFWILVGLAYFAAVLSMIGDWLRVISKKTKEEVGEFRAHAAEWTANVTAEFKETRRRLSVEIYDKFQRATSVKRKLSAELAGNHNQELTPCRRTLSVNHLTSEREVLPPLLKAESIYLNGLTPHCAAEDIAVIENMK
The test can be described thus: Assay for TREK channel inhibition activity (whole cell patch clamp recording, COS7 cell transfected with GFP-rTREK-1). In kind it is cell-based. As to conditions: COS7 cells, GFP-rTREK-1, whole-cell patch clamp; for inhibition at 101 µM: COS-7, Table 3 (value ± spread), 101 μM [sic], read-out: block % at 101 μM; for inhibition at 10 µM: COS-7, Table 2, read-out: block % at 10 μM. On the procedure: The inhibition activity of the compound of the present invention against TREK-1 channel was measured by measuring the physiological activity by whole cell patch clamp recording.
COS7 cell (obtained from Korean Cell Line Bank (KCLB)) was transfected with GFP-rTREK-1 gene (accession number: AY727922) using an Effectene transfection reagent (Qiagen), and cultured for 24 hours in an incubator at 37° C. As a culture medium, Dulbecco's modified Eagle's medium (DMEM, GIBCO products from Invitrogen) containing 10% by weight of fetal bovine serum (FBS) and 1% by weight of penicillin/streptomycin (5000 unit/ml) was used. The cells thus prepared were adhered on a cover glass, which was placed on a chamber, and then a recording solution (150 mM NaCl, 10 mM HEPES, 10 mM KCl, 2 mM CaCl2, 5.5 mM D-Glucose, all reagents were purchased from Sigma) was applied. A glass microelectrode was filled with an intracellular solution prepared with the composition of 150 mM KCl, 5 mM EGTA, 10 mM HEPES, 0.5 mM CaCl2, 1 mM MgCl2, 4 mM Mg-ATP, and 0.3 mM Na-GTP (all reagents were purchased from Sigma), followed by whole-cell patch clamp recording. The voltage was fixed at −70 mV using a Digidata 1322A data acquisition system (Molecular Devices) and an Axopatch 200A amplifier (Axon Instruments), and the current generated by applying a voltage ramp from −100 mV to +100 mV for 1 second was measured using a Clampex9.2 program. A difference between the current values measured at +100 mV and −100 mV was defined as a current in the above experiment. The currents before and after blocker treatment were measured so as to determine the inhibition activity.
Block %=100−(current after blocker treatment/current before blocker treatment)*100
On the technique in general: Patch clamp records ionic current or voltage across a cell membrane.

Structures are written as SMILES.

Chain of α1G T-type calcium channel (O43497 whole entry): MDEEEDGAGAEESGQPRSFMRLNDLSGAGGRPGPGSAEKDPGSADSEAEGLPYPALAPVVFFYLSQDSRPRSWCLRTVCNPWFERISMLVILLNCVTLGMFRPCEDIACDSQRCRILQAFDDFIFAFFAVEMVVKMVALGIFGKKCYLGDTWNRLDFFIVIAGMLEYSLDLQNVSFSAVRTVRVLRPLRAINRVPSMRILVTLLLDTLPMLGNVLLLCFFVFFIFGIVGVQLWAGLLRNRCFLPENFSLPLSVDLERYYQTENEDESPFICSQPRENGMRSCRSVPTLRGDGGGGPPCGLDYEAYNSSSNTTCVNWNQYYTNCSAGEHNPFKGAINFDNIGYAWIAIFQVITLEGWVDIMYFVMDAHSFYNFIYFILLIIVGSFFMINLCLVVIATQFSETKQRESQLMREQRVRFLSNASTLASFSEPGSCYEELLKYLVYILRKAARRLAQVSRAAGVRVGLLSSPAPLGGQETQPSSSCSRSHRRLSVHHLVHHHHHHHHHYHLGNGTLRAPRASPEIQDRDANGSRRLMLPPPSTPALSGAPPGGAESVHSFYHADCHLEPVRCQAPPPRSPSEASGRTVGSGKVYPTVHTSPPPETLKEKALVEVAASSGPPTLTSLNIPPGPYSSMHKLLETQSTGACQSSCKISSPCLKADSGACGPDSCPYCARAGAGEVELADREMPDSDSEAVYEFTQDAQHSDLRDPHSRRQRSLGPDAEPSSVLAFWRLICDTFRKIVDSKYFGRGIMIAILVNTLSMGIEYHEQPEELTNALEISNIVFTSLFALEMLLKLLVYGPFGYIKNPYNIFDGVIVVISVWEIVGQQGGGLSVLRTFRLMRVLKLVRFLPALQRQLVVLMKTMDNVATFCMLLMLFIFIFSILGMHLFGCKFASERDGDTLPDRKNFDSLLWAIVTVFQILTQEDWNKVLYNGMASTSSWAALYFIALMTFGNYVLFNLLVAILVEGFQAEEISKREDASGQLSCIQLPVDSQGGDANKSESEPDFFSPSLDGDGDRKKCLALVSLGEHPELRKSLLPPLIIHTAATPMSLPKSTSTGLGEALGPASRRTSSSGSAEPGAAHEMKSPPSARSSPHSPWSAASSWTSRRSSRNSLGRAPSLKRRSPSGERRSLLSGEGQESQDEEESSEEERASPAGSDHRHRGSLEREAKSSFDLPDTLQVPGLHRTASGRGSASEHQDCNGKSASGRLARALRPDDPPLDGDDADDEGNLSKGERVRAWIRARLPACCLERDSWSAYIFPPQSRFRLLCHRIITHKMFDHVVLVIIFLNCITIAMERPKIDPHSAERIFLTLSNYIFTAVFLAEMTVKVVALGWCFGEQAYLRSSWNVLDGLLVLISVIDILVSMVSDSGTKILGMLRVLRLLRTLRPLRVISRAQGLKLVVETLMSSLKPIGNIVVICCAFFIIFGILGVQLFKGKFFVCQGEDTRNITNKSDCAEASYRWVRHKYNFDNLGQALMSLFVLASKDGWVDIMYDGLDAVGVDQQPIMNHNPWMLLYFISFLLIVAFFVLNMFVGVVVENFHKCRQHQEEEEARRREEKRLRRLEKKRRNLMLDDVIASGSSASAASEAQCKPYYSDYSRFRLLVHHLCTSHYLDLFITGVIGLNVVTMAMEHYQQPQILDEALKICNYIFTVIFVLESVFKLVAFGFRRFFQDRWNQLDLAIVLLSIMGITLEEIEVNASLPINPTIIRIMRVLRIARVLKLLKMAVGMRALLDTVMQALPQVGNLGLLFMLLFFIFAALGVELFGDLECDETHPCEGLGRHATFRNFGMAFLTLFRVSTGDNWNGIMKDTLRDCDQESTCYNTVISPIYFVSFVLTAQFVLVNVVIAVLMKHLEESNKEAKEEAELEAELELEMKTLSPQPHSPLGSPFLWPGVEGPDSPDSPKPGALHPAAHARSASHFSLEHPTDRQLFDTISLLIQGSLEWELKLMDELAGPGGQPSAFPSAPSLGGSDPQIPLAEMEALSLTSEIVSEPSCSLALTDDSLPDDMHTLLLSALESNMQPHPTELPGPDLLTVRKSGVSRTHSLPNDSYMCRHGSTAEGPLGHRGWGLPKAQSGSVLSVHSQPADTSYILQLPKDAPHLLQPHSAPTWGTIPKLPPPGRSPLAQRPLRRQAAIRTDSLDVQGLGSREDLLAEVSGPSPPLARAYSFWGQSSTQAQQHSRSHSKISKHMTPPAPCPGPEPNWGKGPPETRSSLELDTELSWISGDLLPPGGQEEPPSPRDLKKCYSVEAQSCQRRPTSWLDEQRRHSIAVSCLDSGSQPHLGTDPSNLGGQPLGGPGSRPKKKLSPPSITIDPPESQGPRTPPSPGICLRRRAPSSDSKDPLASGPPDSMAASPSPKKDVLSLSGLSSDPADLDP

On to `O[C@H](COc1ccc(F)cc1)CN1CCC(N2CCOCC2)CC1` [KKRE10157, (S)-1-(4-fluorophenoxy)-3-(4-morpholinopiperidin-1-yl)propan-2-ol], for which the inhibition in test [1] is 9.33%. Besides, the inhibition at 101 µM in test [2] worked out at 29.6 ± 3.71%.

In the case of `O[C@@H](COc1ccc(F)cc1)CN1CCC(N2CCCCC2)CC1` [KKRE10158, (R)-1-(1,4′-bipiperidin-1′-yl)-3-(4-fluorophenoxy)propan-2-ol], the inhibition in test [1] worked out at 6.65%. Besides, the inhibition at 101 µM in test [2] worked out at 16.8 ± 2.73%.

On to `O[C@H](COc1ccc(F)cc1)CN1CCC(N2CCCCC2)CC1` [KKRE10159, (S)-1-(1,4′-bipiperidin-1′-yl)-3-(4-fluorophenoxy)propan-2-ol], for which the inhibition in test [1] was determined as 6.37%. Besides, the inhibition at 101 µM in test [2] amounted to 13.4 ± 5.78%.

Consider `O[C@@H](COc1ccc(F)cc1)CN1CCC(N2CCCC2)CC1` [KKRE10160, (R)-1-(4-fluorophenoxy)-3-(4-(pyrrolidin-1-yl)piperidin-1-yl)propan-2-ol], for which, in test [1], the inhibition worked out at 0.31%. Further, in test [2], the inhibition at 101 µM is 4.13 ± 4.43%.

With `O[C@H](COc1ccc(F)cc1)CN1CCC(N2CCCC2)CC1` [KKRE10161, (S)-1-(4-fluorophenoxy)-3-(4-(pyrrolidin-1-yl)piperidin-1-yl)propan-2-ol], the inhibition in test [1] is -0.06%. In addition, the inhibition at 101 µM in test [2] amounted to 8.28 ± 3.49%.

Turning to `O=C(CN1CCN(C[C@H](O)COc2ccc(C(F)(F)F)cc2)CC1)NCc1ccc(C(F)(F)F)cc1` [KKRE10173, (S)-2-(4-(2-hydroxy-3-(4-(trifluoromethyl)phenoxy)propyl)piperazin-1-yl)-N-(4-(trifluoromethyl)benzyl)acetamide], the inhibition in test [1] was 53.6%. Besides, in test [2], the inhibition at 10 µM is 63.2% and the inhibition at 101 µM was found to be 63.2 ± 7.6%.

Consider `Cc1ccc(CNC(=O)CN2CCN(C[C@H](O)COc3ccc(C(F)(F)F)cc3)CC2)cc1` [KKRE10174, (S)-2-(4-(2-hydroxy-3-(4-(trifluoromethyl)phenoxy)propyl)piperazin-1-yl)-N-(4-methylbenzyl)acetamide], for which the inhibition in test [1] is 48.8%. For the same molecule, in test [2], the inhibition at 10 µM was determined as 37.6% and the inhibition at 101 µM came to 37.6 ± 5.55%. For the same molecule, in test [2] (Table 2), the “block % at 100 μM” value amounted to 88.17%. The “block % at 100 μM” value in test [2] (Table 3 (value ± spread)) came out at 88.17 ± 4.60%.

As for `O=C(CN1CCN(C[C@H](O)COc2ccc(C(F)(F)F)cc2)CC1)NC1CCCCC1` [KKRE10175, (S)-N-cyclohexyl-2-(4-(2-hydroxy-3-(4-(trifluoromethyl)phenoxy)propyl)piperazin-1-yl)acetamide], the inhibition in test [1] was 43.1%. Further, in test [2], the inhibition at 10 µM turned out to be 18.1% and the inhibition at 101 µM came to 18.1 ± 6.92%. Further, the “block % at 100 μM” value in test [2] (Table 2) worked out at 74.61%. Also, the “block % at 100 μM” value in test [2] (Table 3 (value ± spread)) was 74.61 ± 2.15%.

`O=C(CN1CCN(C[C@@H](O)COc2ccc(C(F)(F)F)cc2)CC1)NC1CCCCC1` [KKRE10176, (R)-N-cyclohexyl-2-(4-(2-hydroxy-3-(4-(trifluoromethyl)phenoxy)propyl)piperazin-1-yl)acetamide]: in test [1], the inhibition amounted to 43.9%. Besides, the inhibition at 101 µM in test [2] is 33.5 ± 5.67%.

On to `O[C@@H](COc1ccc(F)cc1)CN1CCC(F)(F)CC1` [KKRE10178, (R)-1-(4,4-difluoropiperidin-1-yl)-3-(4-fluorophenoxy)propan-2-ol], for which the inhibition in test [1] came out at 37.6%. For the same molecule, the inhibition at 101 µM in test [2] was determined as 66 ± 4.05%.

Take `O[C@@H](COc1ccc(F)cc1)CN1CCC(O)(c2ccccc2)CC1` [KKRE10179]: the inhibition in test [1] turned out to be 16%. In addition, the inhibition at 101 µM in test [2] was determined as 19.9 ± 4.25%.

In the case of `O[C@H](COc1ccc(F)cc1)CN1CCC(F)(F)CC1` [KKRE10180, (S)-1-(4,4-difluoropiperidin-1-yl)-3-(4-fluorophenoxy)propan-2-ol], the inhibition in test [1] came out at 17.3%. Moreover, in test [2], the inhibition at 101 µM worked out at 23.3 ± 10%.

Turning to `O[C@H](COc1ccc(F)cc1)CN1CCC(O)(c2ccccc2)CC1` [KKRE10181], the inhibition in test [1] came out at 35.4%. For the same molecule, the inhibition at 101 µM in test [2] is 53.9 ± 1.62%.

Regarding `O[C@@H](COc1ccc(C(F)(F)F)cc1)CN1CCC(N2CCOCC2)CC1` [KKRE10182, (R)-1-(4-morpholinopiperidin-1-yl)-3-(4-(trifluoromethyl)phenoxy)propan-2-ol], in test [1], the inhibition was 12.5%. For the same molecule, the inhibition at 101 µM in test [2] was 46.6 ± 6.25%.

On to `O[C@@H](COc1ccc(C(F)(F)F)cc1)CN1CCC(N2CCCCC2)CC1` [KKRE10183, (R)-1-(1,4′-bipiperidin-1′-yl)-3-(4-(trifluoromethyl)phenoxy)propan-2-ol], for which the inhibition in test [1] was 12%. Besides, the inhibition at 101 µM in test [2] was 36.4 ± 7.38%.

As for `O[C@@H](COc1ccc(C(F)(F)F)cc1)CN1CCC(N2CCCC2)CC1` [KKRE10184, (R)-1-(4-(pyrrolidin-1-yl)piperidin-1-yl)-3-(4-(trifluoromethyl)phenoxy)propan-2-ol], the inhibition in test [1] stood at 9.54%. The inhibition at 101 µM in test [2] is 37.4 ± 6.98%.

`O[C@@H](COc1ccc(C(F)(F)F)cc1)CN1CCC(F)(F)CC1` [KKRE10185, (R)-1-(4,4-difluoropiperidin-1-yl)-3-(4-(trifluoromethyl)phenoxy)propan-2-ol]: the inhibition in test [1] amounted to 14.8%. In test [2], the inhibition at 101 µM worked out at 60.8 ± 7.47%.

Turning to `O[C@@H](COc1ccc(C(F)(F)F)cc1)CN1CCC(O)(c2ccccc2)CC1` [KKRE10186, (R)-1-(2-hydroxy-3-(4-(trifluoromethyl)phenoxy)propyl)-4-phenylpiperidin-4-ol], in test [1], the inhibition came to 46.1%. Besides, the inhibition at 101 µM in test [2] stood at 54 ± 12.1%.

For the molecule `O[C@H](COc1ccc(C(F)(F)F)cc1)CN1CCC(N2CCOCC2)CC1` [KKRE10187, (S)-1-(4-morpholinopiperidin-1-yl)-3-(4-(trifluoromethyl)phenoxy)propan-2-ol], the inhibition in test [1] is 10.1%. Moreover, the inhibition at 101 µM in test [2] amounted to 49.2 ± 6.75%.

Turning to `O[C@H](COc1ccc(C(F)(F)F)cc1)CN1CCC(N2CCCCC2)CC1` [KKRE10188, (S)-1-(1,4′-bipiperidin-1′-yl)-3-(4-(trifluoromethyl)phenoxy)propan-2-ol], the inhibition in test [1] was 5.73%. In addition, the inhibition at 101 µM in test [2] worked out at 55.6 ± 0.23%.
